Source: US20130303539A1, “COMPOUNDS WITH TRPV4 ACTIVITY, COMPOSITIONS AND ASSOCIATED METHODS THEREOF” (priority 2012, published 2013)

What was measured:
[1] = test system: MB mouse model of glaucoma; assay: IOP in microbead (MB) mouse model of glaucoma, intraperitoneal dosing; format: in vivo
Protocol: FIG. 2 confirms that the mouse model for glaucoma causes RGC degeneration. Specifically, microbeads (MBs) were injected into the anterior chamber of a mouse eye. The MBs increase intraocular IOP above 15 mm Hg by blocking outflow of the aqueous humor within the anterior chamber of the eye. MBs were reinjected as needed to maintain a high IOP, typically one injection every two weeks. Contralateral eyes were injected intraocularly with the vehicle PBS (phosphate buffered saline) as controls. […] IOP levels were measured at least twice weekly before and after intraocular injections. After injections, mice recovered for 48 hours before IOP measurements resumed. […] Retinas were then removed and processed for immunohistochemistry (IHC). […] After rinsing with PBS, PBS containing the secondary antibody conjugated to fluorophores (Alexa 488 or Alexa 594; […] Retinas were rinsed and flat-mounted on microscope slides. Mounting medium was added and retinal wholemounts were coverslipped. The density of RGCs was imaged with a confocal microscope (Zeiss LSM 510) and quantified by counting NeuN-, CFP- and/or Tuj-1—labeled somata in the RGC layer of the retinal wholemount preparation. Injection of microbeads induces RGC degeneration after 8 weeks but not after 4 weeks. […] Mice were sedated with IP injection of Avertin with final amount calculated by weight (e.g., 0.5 ml for 21-24 g animals). […]

[2] = test system: retinal ganglion cells; assay: Hypotonic swelling-induced calcium influx in retinal ganglion cells (Fura-2); format: cell-based
Description: Cells were labeled with fluorescent calcium indicator dye Fura-2 and exposed to hypotonic solutions in which extracellular sodium was replaced by the osmotically inert substance mannitol, as described in […] et al. (J. Neurosci. 2011 May 11; 31(19):7089-101; PMID 21562271).

[3] = test system: Müller cells; assay: Arachidonic acid-induced [Ca2+]i in Müller cells; format: cell-based; details: 1 μM, against 10 μM arachidonic acid
Protocol: This response is blocked by Compound 1 (1 μM).

[4] = test system: retinal ganglion cells; assay: In vivo intraocular injection of TRPV4 agonist GSK, NeuN+ RGC count; details: intraocular GSK, 48 hours
Protocol: In this experiment, GSK (100-300 nM) was injected intraocularly with a Hamilton syringe. Retinas were isolated after 48 hours, fixed and labeled with the RGC marker antibody NeuN. NeuN-immunopositive somata in the ganglion cell layer, shown in the panel on the right, were counted. The bar graph represents quantification of NeuN^+ cells in the indicated experimental groups.

[5] = test system: retinal ganglion cells; assay: TUNEL assay of apoptotic cell death in retina; format: cell-based; details: Compound 1 1 uM, RuR 10 μM
Protocol: Terminal deoxynucleotidyl transferase-mediated dUTP-biotin nick end labeling (TUNEL) is a common method for detecting fragmentation that results from apoptotic signaling cascades. Retinas were embedded, cryosectioned, and processed for the TUNEL assay following the protocol by Gavrieli et al. (1992). After 30 min. rehydration in 70% ethanol, 2×5 min. rinses in PBS and 1% Triton-X in 1% citrate buffer (pH 7.3), the slides were subjected to a final rinse in PBS. Slides were then incubated for 30 min. in the reaction buffer (30 mM Trizma-HCl, 140 mM Na^+ cacodylate, 1.0 mM CaCl2, 0.2% Triton X-100, pH 7.2). Positive controls were treated with DNAse I (Roche Diagnostics; Branford, Conn.; 10 U/ml) in the reaction buffer. Next, slides were treated for 1 hour with 0.03 units/pi terminal transferase and 4 μM biotin-16-dUTP (Roche Diagnostics). The reaction was terminated in 30 mM Na+ citrate, 300 mM NaCl and 0.2% Triton X-100 in PBS (5 min.) and rinsed in PBS (2×5 min), exposed to 1% bovine serum albumin in PBS for 20 min and rinsed. Apoptotic cells were visualized with a confocal microscope (Zeiss LSM510) and categorized by size. […] This was blocked by RuR and by the TRPV4 antagonist Compound 1.

[6] = target: T1, TRPV4 (Mus musculus, UniProt Q9EPK8); assay: Block of TRPV4 agonist-induced calcium responses in retinal ganglion cells; format: cell-based; set-up: endogenous in cells; host or cells: retinal Müller glial cells
Protocol: Calcium responses in retinal ganglion cells were elicited by 25 nM agonist GSK in the presence of varying concentrations of Compound 1. The half-maximal dose of inhibition was ˜300 nM.

[7] = target: T1, TRPV4; assay: AGB cation influx into retinal cells (anti-AGB antibody); format: cell-based; set-up: these two cell types express TRPV4 channels in the mouse retina; from tissue; host or cells: mouse retina; details: mouse retina
Protocol: FIG. 16 illustrates the effect of the TRPV4 agonist GSK on cation influx into mouse retinal cells of the mouse retina. The influx was determined using the anti-AGB antibody, as described by Marc RE (J Comp Neurol 407(1): 47-64, 1999). AGB is a membrane permeant cation that can flow through most known cation channels. Using an anti-AGB antibody, it can be determined where the cation flux occurs and, therefore, which cells are activated.

T1 sequence (Q9EPK8 whole entry): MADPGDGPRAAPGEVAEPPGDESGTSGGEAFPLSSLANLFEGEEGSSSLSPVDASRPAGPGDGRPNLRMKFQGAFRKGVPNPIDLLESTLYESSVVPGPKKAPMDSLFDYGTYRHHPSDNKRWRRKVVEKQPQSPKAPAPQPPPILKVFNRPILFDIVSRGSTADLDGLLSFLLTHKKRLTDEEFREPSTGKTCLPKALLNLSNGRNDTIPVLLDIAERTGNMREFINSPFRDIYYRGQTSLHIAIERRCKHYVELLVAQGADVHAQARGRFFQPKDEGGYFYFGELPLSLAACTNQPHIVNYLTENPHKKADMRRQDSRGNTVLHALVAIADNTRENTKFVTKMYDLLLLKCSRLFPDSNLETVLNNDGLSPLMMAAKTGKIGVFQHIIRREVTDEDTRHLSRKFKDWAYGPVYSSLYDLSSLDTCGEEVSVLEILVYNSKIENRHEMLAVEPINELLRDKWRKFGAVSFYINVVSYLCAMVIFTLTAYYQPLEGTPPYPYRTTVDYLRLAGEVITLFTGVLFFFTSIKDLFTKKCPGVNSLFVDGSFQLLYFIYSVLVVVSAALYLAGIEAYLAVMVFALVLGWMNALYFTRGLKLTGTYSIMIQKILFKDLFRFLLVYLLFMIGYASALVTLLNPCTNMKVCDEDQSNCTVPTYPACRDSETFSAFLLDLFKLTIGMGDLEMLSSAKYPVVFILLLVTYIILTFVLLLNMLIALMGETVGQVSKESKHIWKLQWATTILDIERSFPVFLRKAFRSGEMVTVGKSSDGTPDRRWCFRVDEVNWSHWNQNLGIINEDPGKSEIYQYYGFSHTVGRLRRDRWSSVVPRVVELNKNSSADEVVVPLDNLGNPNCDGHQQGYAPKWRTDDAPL

With Cc1c(C(=O)Nc2cccc(C(F)(F)F)c2)cc(-c2ccccc2)n1CCCN1CCOCC1 [Compound 1, N-(3-(trifluoromethyl)phenyl)-2-methyl-1-(3-morpholinopropyl)-5-phenyl-1H-pyrrole-3-carboxamide] the IOP ([1]; 10 mg/kg body weight intraperitoneally, MB-injected eyes vs PBS-injected eyes) was “blocked the increase in IOP to the level observed in control mice”, the “average IOP, cumulative effectiveness” value ([1]; daily IP injections, cumulative data from 3 independent experiments) was “blocks MB-induced increases in IOP” and the “effect of cell swelling on intracellular calcium levels in ganglion cells” value ([2]; 140 mOsm saline) was “blocked”. For the same molecule, the “pressure-dependent influx of calcium in RGCs (FIG. 17C)” value ([2]; hypotonic solutions) was “prevents the pressure-dependent influx of calcium in RGCs”, the “block of arachidonic acid-induced [Ca2+]i increase” value [3] was “blocked” and the “block of GSK-induced RGC degeneration” value [4] was “blocked”. The “apoptotic cell death (TUNEL) induced by hypotonic swelling” value ([5]; 190 mOsm saline) was “block apoptotic cell death”, the “apoptotic cell death (TUNEL) induced by the TRPV4 agonist GSK” value ([5]; GSK 100 nM) was “block apoptotic cell death” and the IC50 [6] was ~300 nM. The “antagonism of the effect of GSK on AGB cation influx” value [7] was “strongly antagonized”.
